Data set [1] addresses T1, Pseudomonas fluorescens aryl esterase (PFE), wild-type, SEQ ID NO:3 (Pseudomonas fluorescens, UniProt P22862).
T1 sequence (P22862 1-272): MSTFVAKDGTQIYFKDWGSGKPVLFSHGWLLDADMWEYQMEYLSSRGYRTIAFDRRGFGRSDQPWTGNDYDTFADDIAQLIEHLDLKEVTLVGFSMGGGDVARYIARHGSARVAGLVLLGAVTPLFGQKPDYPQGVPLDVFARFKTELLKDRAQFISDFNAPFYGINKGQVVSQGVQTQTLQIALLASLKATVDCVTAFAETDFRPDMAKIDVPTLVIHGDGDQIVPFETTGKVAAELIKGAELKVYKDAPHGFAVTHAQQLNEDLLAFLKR
The method, then:
(§1) Activity assays were performed in quadruplicates on 96-well microtiter plates with a reaction volume of 100 μl (90 μl assay solution to 10 μl enzyme in 5 mM BES pH 7.2). The path-length for light through the well was 0.29 cm.
(§2) The monochlorodimedon (MCD) assay (Hager et al., 1966, J. Biol. Chem., 241:1769-1777) was used to detect peracid formation. Each reaction contained MCD (0.18 mM), H2O2 (90 mM), NaBr (90 mM) in acetate buffer (1 M, pH 5.5) at 25° C. The reaction was followed spectrophotometrically at 290 nm in UV-transparent microtiter plates (ε=19.9×10^3 M^−1 cm^−1).
(§3) An estimate of kinetic parameters was also obtained for hydrogen peroxide in wild-type and Leu29Pro. The hydrogen peroxide in wild-type was 5, 10, 20, 50, 100, and 200 mM; for Leu29Pro, the concentrations were 5, 10, 20, 35, 50, 121, 152, and 200 mM.

The target in data set [2] is T2, Pseudomonas fluorescens aryl esterase (PFE) variant Leu29Pro (parent SEQ ID NO:3) (Pseudomonas fluorescens, UniProt P22862, L30P).
T2 sequence (P22862 1-272 L30P): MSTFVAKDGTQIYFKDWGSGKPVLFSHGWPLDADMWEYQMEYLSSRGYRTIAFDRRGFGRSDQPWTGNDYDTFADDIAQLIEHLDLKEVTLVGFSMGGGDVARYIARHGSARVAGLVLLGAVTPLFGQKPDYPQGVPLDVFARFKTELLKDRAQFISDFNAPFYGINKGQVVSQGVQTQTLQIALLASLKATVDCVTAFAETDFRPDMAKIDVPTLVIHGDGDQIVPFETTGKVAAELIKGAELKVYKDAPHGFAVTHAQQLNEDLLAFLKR
As for the experimental part: as §1, §2, §3

Data set [3] concerns the target T2, Pseudomonas fluorescens aryl esterase (PFE) variant Leu29Pro (parent SEQ ID NO:3). The data set can be described thus: Kinetics of p-nitrophenyl acetate hydrolysis, Leu29Pro PFE. In kind it is biochemical. The arrangement: expressed as in Cheeseman et al. 2004. The method, then: (§4) The p-nitrophenyl acetate (pNPAc) assay contained pNPAc (0.3 mM) and 8% acetonitrile as co-solvent in BES buffer (5 mM, pH 7.2). The reaction was monitored spectrophotometrically at 404 nm (ε=11.4·10 ^3 M^−1 cm^−1). A pH-indicator assay was used to assay substrates without inherent light absorbing properties (Janes et al., 1998, Chem. Eur. J. 4:2324-2331). The reactions were carried out in BES buffer (5 mM, pH 7.2) containing p-nitrophenol. As hydrolysis progresses, protons add to the p-nitrophenolate and the course of reaction can be monitored as a decrease in absorbance at 404 nm (ε=16.5·10^3 M^−1 cm^−1). This provides a good estimate of reaction rates, but is limited to substrates containing only one possible acid-functionality, as several would interfere with the pH indicator.
(§5) Kinetic parameters for hydrolysis of pNPAc in wild-type and Leu29Pro were carried out with pNPAc at 0.1, 0.2, 0.5, 1.0, 2.0, 4.0, and 10 mM under otherwise identical conditions as for the pNPAc-assay. Solubility problems limited higher substrate concentrations than 10 mM. Data points were fitted by non-linear regression using OriginPro 7.5 SR1 v7.5776 (OriginLab Corporation, Northampton, Mass.) with a hyperbola function of basic equation y=P1*x/(P2+x), where x is the substrate concentration (mM), P1 corresponds to Vmax (μmol min^−1 mg^−1 or U/mg), and P2 corresponds to KM (mM). R^2-values for were 0.992 and 0.997 for wild-type and Leu29Pro, respectively.

Substrate in data set [4]: CC(=O)Oc1ccc([N+](=O)[O-])cc1
The data set can be described thus: Kinetics of p-nitrophenyl acetate hydrolysis, wild-type PFE. The conditions noted are these: other: hydrolysis of pNPAc 0.1-10 mM, 5 mM BES pH 7.2, 8% acetonitrile. In kind it is biochemical, Pseudomonas fluorescens. The method, then: as §4, §5

Substrate in data set [5]: CC(=O)Oc1ccc([N+](=O)[O-])cc1
Put plainly: Kinetics of p-nitrophenyl acetate hydrolysis, Leu29Pro PFE. In kind it is biochemical, Pseudomonas fluorescens. The note with it: other: hydrolysis of pNPAc 0.1-10 mM, 5 mM BES pH 7.2, 8% acetonitrile. As for the experimental part: as §4, §5

Setting [6] is: perhydrolysis, H2O2 5-200 mM, 1 M acetate pH 5.5, 25° C.
Setting [7] is: perhydrolysis, H2O2 5-200 mM, 1 M acetate pH 5.5, 25° C., Leu29Pro.

Read-outs that look alike come from different tables or passages of the source.

As for `OO` [H2O2, hydrogen peroxide], the Vmax/KM in data set [1] (perhydrolysis of acetic acid, H2O2) stood at 13 U mg^−1 M^−1; in data set [2] (perhydrolysis of acetic acid, H2O2, Leu29Pro) it was 180 U mg^−1 M^−1. In addition, the figures for the Km in data set [1] (setting [6]) and in data set [2] (setting [7]) were 17 mM and 58 mM, respectively. Moreover, the Vmax is listed as 0.22 ± 0.02 U mg^−1 in data set [1] (setting [6]); 0.22 U mg^−1 in data set [1] (perhydrolysis, H2O2 5-200 mM, 1 M acetate pH 5.5, 25° C., listed as hydrogen peroxide); 11 ± 1 U mg^−1 in data set [2] (setting [7]); 11 U mg^−1 in data set [2] (perhydrolysis, H2O2 5-200 mM, 1 M acetate pH 5.5, 25° C., Leu29Pro, listed as hydrogen peroxide). Also, in data set [2] (Leu29Pro vs wild-type), the “fold increase in Vmax for perhydrolysis” value was 50 fold. For the same molecule, the “fold increase in catalytic efficiency (Vmax/KM) for perhydrolysis of acetic acid” value in data set [2] (Leu29Pro vs wild-type) is 14 fold. Further, in data set [2] (Leu29Pro vs wild-type), the “increase in Km for hydrogen peroxide” value is given as “three-fold”.
For the molecule `CC(=O)Oc1ccc([N+](=O)[O-])cc1` [pNPAc, p-nitrophenyl acetate], in data set [3] (Leu29Pro vs wild-type), the “fold decrease in Vmax for hydrolysis of pNPAc” value amounted to 50 fold and the “increase in KM for pNPAc” value is on record as “three-fold”. In addition, in data set [3] (Leu29Pro vs wild-type (decrease)), the “fold change in catalytic efficiency (Vmax/KM) for hydrolysis of pNPAc” value came to 165 fold.

B1: Pseudomonas fluorescens aryl esterase (PFE), wild-type, SEQ ID NO:3 (Pseudomonas fluorescens) (protein)
chain: MSTFVAKDGTQIYFKDWGSGKPVLFSHGWLLDADMWEYQMEYLSSRGYRTIAFDRRGFGRSDQPWTGNDYDTFADDIAQLIEHLDLKEVTLVGFSMGGGDVARYIARHGSARVAGLVLLGAVTPLFGQKPDYPQGVPLDVFARFKTELLKDRAQFISDFNAPFYGINKGQVVSQGVQTQTLQIALLASLKATVDCVTAFAETDFRPDMAKIDVPTLVIHGDGDQIVPFETTGKVAAELIKGAELKVYKDAPHGFAVTHAQQLNEDLLAFLKR
notes: expressed as in Cheeseman et al. 2004
For B1, in data set [4], the Km is recorded as 2.8 ± 0.4 mM, the Vmax is 143 µmol/min/mg and the Vmax/Km was determined as 51000 µL/min/mg.

B2: Pseudomonas fluorescens aryl esterase (PFE) variant Leu29Pro (parent SEQ ID NO:3) (Pseudomonas fluorescens; L30P) (protein)
chain: MSTFVAKDGTQIYFKDWGSGKPVLFSHGWPLDADMWEYQMEYLSSRGYRTIAFDRRGFGRSDQPWTGNDYDTFADDIAQLIEHLDLKEVTLVGFSMGGGDVARYIARHGSARVAGLVLLGAVTPLFGQKPDYPQGVPLDVFARFKTELLKDRAQFISDFNAPFYGINKGQVVSQGVQTQTLQIALLASLKATVDCVTAFAETDFRPDMAKIDVPTLVIHGDGDQIVPFETTGKVAAELIKGAELKVYKDAPHGFAVTHAQQLNEDLLAFLKR
notes: as for B1
Take B2: in data set [5], the Km came to 8.9 ± 1.1 mM, the Vmax was determined as 2.8 µmol/min/mg and the Vmax/Km is 310 µL/min/mg.

For the origin of these results see patent US7384787B2, “Increasing perhydrolase activity in esterases and/or lipases” (Regents of the University of Minnesota, priority 2005, dated 2008).
